The source of these data is patent US5098826A, “Detection, isolation and purification of Clostridium difficile toxin A with toxin receptors” (Virginia Tech Intellectual Properties, Inc., priority 1990, dated 1992).

One test has as its target toxin A (Clostridioides difficile, UniProt P16154). The conditions noted are these: cited from earlier work; for toxin A binding: Krivan et al., U.S. Pat. No. 4,863,852, Clark et al.
The next test concerns the target T1, C. difficile toxin A (Clostridioides difficile, UniProt P16154).
T1 construct: The organism was cultured, and the toxin A was purified from the culture filtrate; made in house; host or cells: C. difficile VPI strain 10463 (natural producer, culture filtrate; not recombinant)
As to the kind of experiment: Crossed immunoelectrophoresis (X-IEP) toxin A binding assay. More on the design: species or system Clostridium difficile. The conditions noted are these: 100 μg toxin A mixed with 500 μg/ml conjugate, on ice 10 minutes, electrophoresis at 4° C., pH 8.6. How it is done: 100 μg toxin A and 500 μg/ml of each of the oligosaccharide-HSA conjugates of Table 1 in PBS were mixed and incubated on ice for 10 minutes, then 5 μl of this mixture was assayed by X-IEP for toxin A binding on a 5×5 cm glass slide substantially as described by Lyerly et al., J. Clin. Microbiol. 17, 72-78 (1983). Briefly, wells (1 mm in diameter) were cut in gels composed of 1.2% (wt/vol) low electroendosmotic agarose (Sigma Chemical Co.) in 0.025M Tris-Tricine buffer (0.6 g agarose in 50 ml buffer) (pH 8.6). The Tris-Tricine buffer is prepared by combining the following and adding deionized water up to a volume of 1 L: Tris, 9.8 g; Ca-lactate, 0.106 g; Tricine, 4.3 g; NaN3, 0.2 g. For the first dimension, oligosaccharide-HSA sample (5 μl) was placed in a sample well in the lower corner of the plate. 0.1% bromphenol blue was placed in an upper corner well as a tracing dye, and the plate was subjected to electrophoresis at 10 V/cm at constant current and 4° C. The second dimension of the plate consisted of a 1.2% (wt/vol) agarose gel containing 0.1 ml of goat antiserum to C. difficile culture filtrate. Electrophoresis was performed at 10 V/cm for about 3 hours at 4° C. Gels were washed in 20 mM sodium phosphate with 130 mM NaCl, pH 7.4, stained with a staining solution (5 g Coomassie Blue R-250, 450 ml EtOH, […], and 450 ml deionized H2 O), and de-stained in the staining solution minus Coomassie Blue.
The principle behind the X-IEP assay is that the rate of migration of toxin A in an electric field is dependent on the net charge of the molecule, which is dependant on its isoelectric point and the pH of the electrophoresis medium. Toxin A has a slight negative charge at pH 8.6, which is the pH at which the X-IEP was carried out. The toxin migrates slowly in the applied electric field. HSA, on the other hand, has a relatively high net negative charge at pH 8.6. […]

Sequence of toxin A (P16154 whole entry, looked up): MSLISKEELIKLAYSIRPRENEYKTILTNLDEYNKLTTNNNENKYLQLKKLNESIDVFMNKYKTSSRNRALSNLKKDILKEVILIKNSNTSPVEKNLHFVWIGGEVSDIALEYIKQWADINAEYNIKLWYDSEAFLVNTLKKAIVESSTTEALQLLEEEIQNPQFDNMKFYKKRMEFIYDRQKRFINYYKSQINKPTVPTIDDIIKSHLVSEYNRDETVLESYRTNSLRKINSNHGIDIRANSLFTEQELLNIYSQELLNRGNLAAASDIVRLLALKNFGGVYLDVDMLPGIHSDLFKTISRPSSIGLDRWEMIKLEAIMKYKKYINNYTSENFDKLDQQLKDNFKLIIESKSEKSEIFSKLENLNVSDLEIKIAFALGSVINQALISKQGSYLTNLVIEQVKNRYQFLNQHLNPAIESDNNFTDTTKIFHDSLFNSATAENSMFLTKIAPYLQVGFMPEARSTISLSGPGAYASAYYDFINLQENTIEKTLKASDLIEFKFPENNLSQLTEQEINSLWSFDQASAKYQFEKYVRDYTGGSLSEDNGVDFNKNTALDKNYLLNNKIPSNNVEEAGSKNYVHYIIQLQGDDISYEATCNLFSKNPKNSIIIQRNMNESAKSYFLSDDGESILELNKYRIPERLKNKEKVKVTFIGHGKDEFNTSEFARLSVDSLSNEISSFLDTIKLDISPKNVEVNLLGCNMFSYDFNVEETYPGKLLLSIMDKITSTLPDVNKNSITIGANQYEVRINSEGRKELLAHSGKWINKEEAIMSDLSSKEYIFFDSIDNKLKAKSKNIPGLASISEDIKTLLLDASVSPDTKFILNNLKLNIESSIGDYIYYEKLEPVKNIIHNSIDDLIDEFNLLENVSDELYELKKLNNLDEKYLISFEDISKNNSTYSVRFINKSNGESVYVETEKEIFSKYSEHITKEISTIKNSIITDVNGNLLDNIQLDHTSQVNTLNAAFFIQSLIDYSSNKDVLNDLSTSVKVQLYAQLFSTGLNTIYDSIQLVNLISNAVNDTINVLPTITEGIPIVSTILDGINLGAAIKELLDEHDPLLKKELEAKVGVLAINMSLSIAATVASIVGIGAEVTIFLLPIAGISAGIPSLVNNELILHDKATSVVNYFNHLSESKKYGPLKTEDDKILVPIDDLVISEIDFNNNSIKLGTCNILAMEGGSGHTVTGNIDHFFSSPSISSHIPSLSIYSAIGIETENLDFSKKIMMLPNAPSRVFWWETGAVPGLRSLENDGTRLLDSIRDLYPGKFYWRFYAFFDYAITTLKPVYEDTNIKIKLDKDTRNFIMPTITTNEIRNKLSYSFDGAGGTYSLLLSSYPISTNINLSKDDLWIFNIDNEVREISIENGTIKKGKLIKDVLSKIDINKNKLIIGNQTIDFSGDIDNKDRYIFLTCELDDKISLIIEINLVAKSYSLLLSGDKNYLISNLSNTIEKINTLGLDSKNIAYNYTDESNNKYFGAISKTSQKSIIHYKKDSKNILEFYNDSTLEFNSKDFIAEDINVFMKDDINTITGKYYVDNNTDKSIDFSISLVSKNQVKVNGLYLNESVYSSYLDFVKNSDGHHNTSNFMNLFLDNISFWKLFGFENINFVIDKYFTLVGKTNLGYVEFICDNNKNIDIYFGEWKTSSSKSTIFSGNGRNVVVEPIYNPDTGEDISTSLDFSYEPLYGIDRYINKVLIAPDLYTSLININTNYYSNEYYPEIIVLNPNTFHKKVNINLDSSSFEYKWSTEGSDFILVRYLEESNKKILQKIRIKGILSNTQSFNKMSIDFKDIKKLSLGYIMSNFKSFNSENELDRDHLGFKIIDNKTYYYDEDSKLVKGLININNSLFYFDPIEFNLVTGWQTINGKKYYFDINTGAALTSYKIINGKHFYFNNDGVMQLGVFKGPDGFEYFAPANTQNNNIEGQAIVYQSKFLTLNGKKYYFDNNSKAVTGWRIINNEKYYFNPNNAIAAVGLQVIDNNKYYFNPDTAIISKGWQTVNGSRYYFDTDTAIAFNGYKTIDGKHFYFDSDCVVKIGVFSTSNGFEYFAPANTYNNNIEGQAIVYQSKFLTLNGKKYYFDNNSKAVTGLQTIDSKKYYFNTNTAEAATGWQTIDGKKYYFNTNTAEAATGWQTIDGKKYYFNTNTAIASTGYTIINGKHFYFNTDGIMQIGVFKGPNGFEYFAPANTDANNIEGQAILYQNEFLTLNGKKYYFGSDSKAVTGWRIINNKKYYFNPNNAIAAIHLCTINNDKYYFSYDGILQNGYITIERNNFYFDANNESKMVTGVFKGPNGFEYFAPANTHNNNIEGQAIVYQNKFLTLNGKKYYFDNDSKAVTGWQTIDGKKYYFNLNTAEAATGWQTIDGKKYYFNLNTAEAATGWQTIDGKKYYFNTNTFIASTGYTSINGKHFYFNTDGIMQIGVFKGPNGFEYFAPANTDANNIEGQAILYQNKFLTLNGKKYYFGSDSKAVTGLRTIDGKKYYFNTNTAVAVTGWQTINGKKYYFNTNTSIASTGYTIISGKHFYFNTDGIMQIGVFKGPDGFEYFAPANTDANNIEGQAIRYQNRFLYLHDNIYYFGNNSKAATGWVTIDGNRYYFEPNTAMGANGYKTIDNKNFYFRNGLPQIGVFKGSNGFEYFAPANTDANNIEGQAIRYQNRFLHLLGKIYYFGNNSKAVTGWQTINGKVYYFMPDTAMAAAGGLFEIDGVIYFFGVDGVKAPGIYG

Consider `CC(=O)N[C@H]1C(O)O[C@H](CO)[C@@H](O[C@@H]2O[C@H](CO)[C@H](O)[C@H](O[C@H]3O[C@H](CO)[C@H](O)[C@H](O)[C@H]3O)[C@H]2O)[C@@H]1O` (some centres unmarked) [Galα(1→3)Galβ(1→4)GlcNAc], for which, on toxin A (37° C., U.S. Pat. No. 4,863,852), the “toxin A binding at 37° C.” value was “not detected”. For the same molecule, on toxin A, the “toxin A binding” value was “binds”. Besides, the “temperature of maximal binding of toxin A” value at toxin A (U.S. Pat. No. 4,863,852) is 4 °C.

As for `CC(=O)N[C@H]1C(O)O[C@H](CO)[C@@H](O[C@@H]2O[C@H](CO)[C@H](O)[C@H](O[C@H]3O[C@H](CO)[C@H](O)[C@H](O)[C@H]3O)[C@H]2O[C@@H]2O[C@@H](C)[C@@H](O)[C@@H](O)[C@@H]2O)[C@@H]1O` (some centres unmarked) [Galα(1→3)[Fucα-(1→2)]Galβ(1→4)GlcNAc, Galα(1→3)[Fucα(1→2)]Galβ(1→4)GlcNAc], the “toxin A binding” value at toxin A is recorded as “does not bind”.

For the molecule `CC(=O)N[C@H]1[C@H](O[C@H]2[C@@H](O)[C@@H](CO)O[C@@H](O[C@H]3[C@H](O)[C@@H](O)C(O)O[C@@H]3CO)[C@@H]2O)O[C@H](CO)[C@@H](O[C@@H]2O[C@H](CO)[C@H](O)[C@H](O)[C@H]2O)[C@@H]1O` (some centres unmarked) [LNnT, Galβ(1→4)GlcNAcβ(1→3)Galβ(1→4)Glc], the “toxin A binding” value at toxin A is recorded as “prevents toxin A from binding”. Also, at C. difficile toxin A, the “Toxin A Binding X-IEP (altered migration of toxin A)” value (shortened to “Toxin A Binding X-IEP”) is given as “did not bind the toxin”.

Turning to “Secretory Component: human protein known to contain the X antigen”, the “Toxin A Binding X-IEP” value with C. difficile toxin A (listed as SC) is on record as “same behavior”.

B1: Carcinoembryonic Antigen: human protein known to contain the X antigen (protein, UniProt P06731 35-685, looked up)
Cell adhesion molecule CEACAM5: KLTIESTPFNVAEGKEVLLLVHNLPQHLFGYSWYKGERVDGNRQIIGYVIGTQQATPGPAYSGREIIYPNASLLIQNIIQNDTGFYTLHVIKSDLVNEEATGQFRVYPELPKPSISSNNSKPVEDKDAVAFTCEPETQDATYLWWVNNQSLPVSPRLQLSNGNRTLTLFNVTRNDTASYKCETQNPVSARRSDSVILNVLYGPDAPTISPLNTSYRSGENLNLSCHAASNPPAQYSWFVNGTFQQSTQELFIPNITVNNSGSYTCQAHNSDTGLNRTTVTTITVYAEPPKPFITSNNSNPVEDEDAVALTCEPEIQNTTYLWWVNNQSLPVSPRLQLSNDNRTLTLLSVTRNDVGPYECGIQNELSVDHSDPVILNVLYGPDDPTISPSYTYYRPGVNLSLSCHAASNPPAQYSWLIDGNIQQHTQELFISNITEKNSGLYTCQANNSASGHSRTTVKTITVSAELPKPSISSNNSKPVEDKDAVAFTCEPEAQNTTYLWWVNGQSLPVSPRLQLSNGNRTLTLFNVTRNDARAYVCGIQNSVSANRSDPVTLDVLYGPDTPIISPPDSSYLSGANLNLSCHSASNPSPQYSWRINGIPQQHTQVLFIAKITPNNNGTYACFVSNLATGRNNSIVKSITVSASGTSPGLSA
B1: the “Toxin A Binding X-IEP” value in the test with C. difficile toxin A (listed as CEA) was “same behavior”.
